Experimental data as given in PubChem BioAssay AID1259407 (Chemical Carcinogenesis Research Information System (CCRIS), 2018).
The source made the active and inactive calls. No rule for the calls is given here.

System: CCRIS mutagenicity, Ames/micronucleus/aberration tests
Experiment: CCRIS mutagenicity studies

With `Cc1ccccc1N` the mutagenic call (End Point: IN VIVO MICRONUCLEUS, Test System: HEPATOCYTES, Species: RAT, Strain/Sex: FISHER 344 OR SD/MALE, Route: ORAL OR IP) was “inactive; negative”, the mutagenic call (End Point: IN VIVO MICRONUCLEUS, Test System: PERIPHERAL BLOOD RETICULOCYTES, Species: RAT, Strain/Sex: FISHER 344 OR SD/MALE, Route: ORAL OR IP) was “active; positive” and the mutagenic call (Test System: AMES SALMONELLA TYPHIMURIUM, Strain/Indicator: TA97, Metabolic Activation: HAMSTER LIVER S-9, AROCLOR 1254 (10 OR 30%), Method: PREINCUBATION) was “inactive; negative”. For the same compound, the mutagenic call (Test System: AMES SALMONELLA TYPHIMURIUM, Strain/Indicator: TA97, Metabolic Activation: NONE, Method: PREINCUBATION) was “inactive; negative”, the mutagenic call (Test System: AMES SALMONELLA TYPHIMURIUM, Strain/Indicator: TA97, Metabolic Activation: NONE, Method: STANDARD PLATE) was “inactive; negative” and the mutagenic call (Test System: AMES SALMONELLA TYPHIMURIUM, Strain/Indicator: TA97, Metabolic Activation: RAT LIVER S-9, AROCLOR 1254 (10 OR 30%), Method: PREINCUBATION) was “inactive; negative”. The mutagenic call (Test System: AMES SALMONELLA TYPHIMURIUM, Strain/Indicator: TA97, Metabolic Activation: RAT, LIVER, S-9, PHENOBARBITAL AND 5,6-BENZOFLAVONE, Method: PREINCUBATION) was “inactive; negative”, the mutagenic call (Test System: AMES SALMONELLA TYPHIMURIUM, Strain/Indicator: TA97, Metabolic Activation: S-9, Method: STANDARD PLATE) was “inactive; negative” and the mutagenic call (Test System: AMES SALMONELLA TYPHIMURIUM, Strain/Indicator: TA98, Metabolic Activation: HAMSTER LIVER S-9, AROCLOR 1254 (10 OR 30%), Method: PREINCUBATION) was “inactive; negative”. For the same compound, the mutagenic call (Test System: AMES SALMONELLA TYPHIMURIUM, Strain/Indicator: TA98, Metabolic Activation: HAMSTER, LIVER, S-9, AROCLOR 1254 (10%), Method: PREINCUBATION) was “inactive; negative”, the mutagenic call (Test System: AMES SALMONELLA TYPHIMURIUM, Strain/Indicator: TA98, Metabolic Activation: HAMSTER, LIVER, S-9, AROCLOR 1254 (30%), Method: PREINCUBATION) was “inactive; negative” and the mutagenic call (Test System: AMES SALMONELLA TYPHIMURIUM, Strain/Indicator: TA98, Metabolic Activation: HAMSTER, LIVER, S-9, SODIUM PHENOBARBITAL AND 5,6-BENZOFLAVONE, Method: PREINCUBATION) was “inactive; negative”. The mutagenic call (Test System: AMES SALMONELLA TYPHIMURIUM, Strain/Indicator: TA98, Metabolic Activation: HAMSTER, LIVER, S-9, Method: PREINCUBATION (PRIVAL METHOD)) was “active; positive”, the mutagenic call (Test System: AMES SALMONELLA TYPHIMURIUM, Strain/Indicator: TA98, Metabolic Activation: NONE, Method: PREINCUBATION) was “inactive; negative” and the mutagenic call (Test System: AMES SALMONELLA TYPHIMURIUM, Strain/Indicator: TA98, Metabolic Activation: NONE, Method: STANDARD PLATE) was “inactive; negative”. For the same compound, the mutagenic call (Test System: AMES SALMONELLA TYPHIMURIUM, Strain/Indicator: TA98, Metabolic Activation: RAT LIVER S-9, AROCLOR 1254 (10 OR 30%), Method: PREINCUBATION) was “inactive; negative”, the mutagenic call (Test System: AMES SALMONELLA TYPHIMURIUM, Strain/Indicator: TA98, Metabolic Activation: RAT, LIVER, S-9, AROCLOR 1254 (10%), Method: PREINCUBATION) was “inactive; negative” and the mutagenic call (Test System: AMES SALMONELLA TYPHIMURIUM, Strain/Indicator: TA98, Metabolic Activation: RAT, LIVER, S-9, AROCLOR 1254 (30%), Method: PREINCUBATION) was “inactive; negative”. For the same compound, the mutagenic call (Test System: AMES SALMONELLA TYPHIMURIUM, Strain/Indicator: TA98, Metabolic Activation: RAT, LIVER, S-9, AROCLOR 1254 + 200 UG NORHARMAN, Method: STANDARD PLATE) was “active; positive”, the mutagenic call (Test System: AMES SALMONELLA TYPHIMURIUM, Strain/Indicator: TA98, Metabolic Activation: RAT, LIVER, S-9, AROCLOR 1254, Method: PREINCUBATION) was “inactive; negative” and the mutagenic call (Test System: AMES SALMONELLA TYPHIMURIUM, Strain/Indicator: TA98, Metabolic Activation: RAT, LIVER, S-9, PHENOBARBITAL AND 5,6-BENZOFLAVONE, Method: PREINCUBATION) was “inactive; negative”. For the same compound, the mutagenic call (Test System: AMES SALMONELLA TYPHIMURIUM, Strain/Indicator: TA98, Metabolic Activation: S-9, Method: STANDARD PLATE) was “inactive; negative”, the mutagenic call (Test System: AMES SALMONELLA TYPHIMURIUM, Strain/Indicator: TA100, Metabolic Activation: HAMSTER LIVER S-9, AROCLOR 1254 (10%), Method: PREINCUBATION) was “inactive; negative” and the mutagenic call (Test System: AMES SALMONELLA TYPHIMURIUM, Strain/Indicator: TA100, Metabolic Activation: HAMSTER LIVER S-9, AROCLOR 1254 (30%), Method: PREINCUBATION) was “active; positive”. For the same compound, the mutagenic call (Test System: AMES SALMONELLA TYPHIMURIUM, Strain/Indicator: TA100, Metabolic Activation: HAMSTER, LIVER, S-9, AROCLOR 1254 (10%), Method: PREINCUBATION) was “inactive; negative”, the mutagenic call (Test System: AMES SALMONELLA TYPHIMURIUM, Strain/Indicator: TA100, Metabolic Activation: HAMSTER, LIVER, S-9, AROCLOR 1254 (30%), Method: PREINCUBATION) was “active; positive” and the mutagenic call (Test System: AMES SALMONELLA TYPHIMURIUM, Strain/Indicator: TA100, Metabolic Activation: HAMSTER, LIVER, S-9, SODIUM PHENOBARBITAL AND 5,6-BENZOFLAVONE, Method: PREINCUBATION) was “inactive; negative”. For the same compound, the mutagenic call (Test System: AMES SALMONELLA TYPHIMURIUM, Strain/Indicator: TA100, Metabolic Activation: NONE, Method: PREINCUBATION) was “inactive; negative”, the mutagenic call (Test System: AMES SALMONELLA TYPHIMURIUM, Strain/Indicator: TA100, Metabolic Activation: NONE, Method: STANDARD PLATE) was “inactive; negative” and the mutagenic call (Test System: AMES SALMONELLA TYPHIMURIUM, Strain/Indicator: TA100, Metabolic Activation: RAT LIVER S-9, AROCLOR 1254 (10 OR 30%), Method: PREINCUBATION) was “inactive; negative”. For the same compound, the mutagenic call (Test System: AMES SALMONELLA TYPHIMURIUM, Strain/Indicator: TA100, Metabolic Activation: RAT, LIVER, S-9, AROCLOR 1254 (10%), Method: PREINCUBATION) was “inactive; negative”, the mutagenic call (Test System: AMES SALMONELLA TYPHIMURIUM, Strain/Indicator: TA100, Metabolic Activation: RAT, LIVER, S-9, AROCLOR 1254 (30%), Method: PREINCUBATION) was “inactive; negative” and the mutagenic call (Test System: AMES SALMONELLA TYPHIMURIUM, Strain/Indicator: TA100, Metabolic Activation: RAT, LIVER, S-9, AROCLOR 1254, Method: STANDARD PLATE) was “inactive; negative”. For the same compound, the mutagenic call (Test System: AMES SALMONELLA TYPHIMURIUM, Strain/Indicator: TA100, Metabolic Activation: RAT, LIVER, S-9, PHENOBARBITAL AND 5,6-BENZOFLAVONE, Method: PREINCUBATION) was “inactive; negative”, the mutagenic call (Test System: AMES SALMONELLA TYPHIMURIUM, Strain/Indicator: TA100, Metabolic Activation: S-9, Method: STANDARD PLATE) was “inactive; negative” and the mutagenic call (Test System: AMES SALMONELLA TYPHIMURIUM, Strain/Indicator: TA102, Metabolic Activation: HAMSTER, LIVER, S-9, SODIUM PHENOBARBITAL AND 5,6-BENZOFLAVONE, Method: PREINCUBATION) was “inactive; negative”. For the same compound, the mutagenic call (Test System: AMES SALMONELLA TYPHIMURIUM, Strain/Indicator: TA102, Metabolic Activation: NONE, Method: PREINCUBATION) was “inactive; negative”, the mutagenic call (Test System: AMES SALMONELLA TYPHIMURIUM, Strain/Indicator: TA102, Metabolic Activation: NONE, Method: STANDARD PLATE) was “inactive; negative” and the mutagenic call (Test System: AMES SALMONELLA TYPHIMURIUM, Strain/Indicator: TA102, Metabolic Activation: S-9, Method: STANDARD PLATE) was “inactive; negative”.
